Values quoted from earlier work, collected in patent US20110130383A1, “Use of Ion Channel Modulators in the Prophylaxis and Treatment of Inflammatory and Immunological Diseases” (LECTUS THERAPEUTICS LIMITED, priority 2006, published 2011).

Assays:
[1] = molecular target: Kv1.3 channels (Homo sapiens, UniProt P22001); conditions: inhibition of Kv1.3 channels versus cardiac Kv1.5 channels
[2] = rats, 28-day, administered by gavage; tissues including those reported to express Kv1.3 channels

Kv1.3 channels, sequence (P22001 whole entry): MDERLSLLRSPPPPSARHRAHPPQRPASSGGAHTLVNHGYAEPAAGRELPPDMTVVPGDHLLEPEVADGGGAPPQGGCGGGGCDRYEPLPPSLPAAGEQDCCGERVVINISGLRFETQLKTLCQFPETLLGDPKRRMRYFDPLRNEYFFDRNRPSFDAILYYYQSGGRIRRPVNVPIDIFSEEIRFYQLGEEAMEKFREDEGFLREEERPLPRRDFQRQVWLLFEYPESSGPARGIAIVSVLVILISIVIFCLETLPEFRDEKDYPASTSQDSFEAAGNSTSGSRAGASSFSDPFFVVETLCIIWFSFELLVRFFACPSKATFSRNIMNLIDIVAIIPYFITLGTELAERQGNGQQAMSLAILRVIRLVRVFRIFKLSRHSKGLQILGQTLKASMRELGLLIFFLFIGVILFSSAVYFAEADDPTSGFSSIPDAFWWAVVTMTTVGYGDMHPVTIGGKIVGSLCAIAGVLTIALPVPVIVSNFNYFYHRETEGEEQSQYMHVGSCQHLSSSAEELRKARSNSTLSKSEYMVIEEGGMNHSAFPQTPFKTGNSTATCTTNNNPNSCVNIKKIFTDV

Structure (SMILES): O=c1ccc2c(OCCCCOc3ccccc3)c3ccoc3cc2o1 [PAP-1]
- selectivity over cardiac Kv1.5 channels [1]: 23 fold
- histopathological changes in tissues examined [2]: failed to induce any histopathological changes
